Article PMC10465125 (eLife, 2023)
Entries after “also recorded” stand apart in the source; their conditions may differ.

Experiments:
[1] = test system: SARS-CoV-2 spike Vpps of different variants (alpha, beta, gamma, delta, omicron); format: cell-based
SARS-CoV-2 omicron virus = assay: microbe, parasite or virus in culture; format: cell-based

Row | Molecule | suppression of entry of Vpp of beta, delta and omicron variant [1] | suppression of infection by Vpp of wild type, alpha variant, gamma variant [1] | EC50 (SARS-CoV-2 omicron virus; Severe acute respiratory syndrome coronavirus 2, Vero C1008, read-out: EC50 against omicron variant virus production) [µg/mL] | block of alpha, beta, gamma, delta, and omicron variants Vpp infection as well as wild-type Vpps [1] | EC50 against omicron variant virus production (SARS-CoV-2 omicron virus) [µg/mL]
1 | O=C1O[C@H]2[C@@H]3OC(=O)c4cc(O)c(O)c(O)c4-c4c(O)c(O)c5oc(=O)c6c(c(O)c(O)c7oc(=O)c4c5c76)-c4c(cc(O)c(O)c4O)C(=O)OC[C@H]3OC(O)[C@@H]2OC(=O)c2cc(O)c(O)c(O)c2-c2c1cc(O)c(O)c2O (mixture of isomers) [Punicalagin, punicalagin] | less potency and not | significant suppression; also recorded: potent inhibitor | 2.88 |  | 
2 | tannic acid [reference compound] |  | significant suppression |  | could block | 5.27
